The test system of assay [1] is Streptomyces turgidiscabies 91SY-12. To be noted: 50 μl per paper disk, 30° C., 6 days.
Assay [2] has the same test system. To be noted: 10 mg/ml in methanol, 30° C., 11 days. The source says:
In the same manner as shown in Example 2, the agar medium was smeared with a spore suspension of the strain 91SY-12, and 4 paper disks (8 mm diameter) were placed thereon.

For assay [3], the system named is plant pathogens. To be noted: surfactin alone; reported in JP 06-135811 A; cited from earlier work.
Assay [4] concerns Streptomyces turgidiscabies 91SY-12. The assay is described as follows: Antibacterial activity against potato scab pathogen: surfactin sodium in agar medium. To be noted: 30° C., 3 days. In kind it is cell-based. On the procedure: Each agar medium was smeared with a spore suspension of the potato scab pathogen Streptomyces turgidiscabies 91SY-12 (hereinafter referred to as “the strain 91SY-12”) and incubated at 30° C. for 3 days.

Read-outs that look alike come from different tables or passages of the source. Numbered stars: 1 amine (or outer) side, 2 acyl side, 3 side chain; on linkers, the order of the positions; unused ones are H or OH. Bridge positions count the residues as written; N and C are the ends. Square brackets hold non-standard residues; d marks the D form. Peptide text beside a SMILES is read from it. X1 = CC(C)CCCCCCCCC[C@H](CC(=O)[*:1])O[*:2]

On to surfactin, for which the “inhibitory effect on spore formation” value in assay [1] (0.01 mg/ml in methanol) is “no inhibitory effect on spore formation”; in assay [1] (0.1 mg/ml in methanol), “inhibited, albeit weakly”; in assay [1] (1.0 mg/ml in methanol) it was “inhibited strongly”. The “inhibition of spore formation” value in assay [2] (10 μl per paper disk), in assay [2] (50 μl per paper disk) and in assay [2] (100 μl per paper disk) was “strongly inhibited” throughout. Besides, the “antibacterial action against plant pathogens” value in assay [3] is “no antibacterial action”.

For `CC(C)CCCCCCCCC[C@@H]1CC(=O)N[C@@H](CCC(=O)O)C(=O)N[C@@H](CC(C)C)C(=O)N[C@H](CC(C)C)C(=O)N[C@@H](C(C)C)C(=O)N[C@@H](CC(=O)O)C(=O)N[C@H](CC(C)C)C(=O)N[C@@H](CC(C)C)C(=O)O1` [surfactin sodium] (EL[dL]VD[dL]L; linker N-C via X1), the “inhibition of spore formation” value in assay [4] (10 μg/ml in agar medium), in assay [4] (50 μg/ml in agar medium) and in assay [4] (100 μg/ml in agar medium) was “tendency to inhibit spore formation” throughout.
